From publication PMC9635468, “Biological evaluation, docking studies, and in silico ADME prediction of some pyrimidine and pyridine derivatives as potential EGFR^WT and EGFR^T790M inhibitors” (Journal of Enzyme Inhibition and Medicinal Chemistry, 2022) come the findings set out here.

The test system of one test is MCF7. The experiment in a line: Cytotoxicity screening, SRB assay, MCF7. The class given is cell-based, human. Particulars: for MCF7 IC50: 48 h; for IC50: Homo sapiens, MCF7, 48 h. The procedure: (§1) In this study, a panel of cell lines was examined for their chemosensitivity. Different concentrations of the synthesised pyridines and pyrimidine derivatives were used in this study (5, 12.5, 25, and 50 µg/mL) for all the examined cell lines. In this study, breast tumour cell line (MCF7), hepatocellular carcinoma cell line (HEPG2), larynx cell line (HEP2), lung cancer cell line (H460), colon cancer cell line (HCT116 and Caco2), hypopharyngeal cell line (FADU), and normal Vero cell line were applied. The full methodology is described in the Supplementary data (SI 1).
(§2) SI 1: Cytotoxicity screening against human cancer cell lines
(§3) In this study, a panel of cell lines was examined for their chemosensitivity. Different concentrations of the synthesized pyridines and pyrimidines derivatives were used in this study (5, 12.5, 25, and 50 µg/ml) for all the examined cell lines. The most sensitive cell line to the treatment regimen was selected and subjected to further investigations to explore the mechanism of this interaction. Human breast tumor cell line (MCF7), human hepatocellular carcinoma cell line (HEPG2), human larynx cell line (HEP2), human lung cancer cell line (H460), human colon cancer cell line (HCT116 and Caco2), human hypopharyngeal cell line (FaDu), and normal cell line Vero were used in this study. It was obtained from the American Type Culture Collection (ATCC, Minnesota, USA). The tumor cell line was maintained at National Cancer Institute (NCI), Cairo, Egypt.
(§4) The antitumor activities of pyridines and pyrimidines derivatives and all tested cell lines were evaluated by sulphorhodamine-B (SRB) assay 1. Briefly, cells were seeded at a density of 3 × 10^3 cells/well in 96-well microtiter plates. They were left to attach for 24 h before incubation with drugs. Next, cells were treated with different concentrations of 5, 12.5, 25, and 50 µg/ml for MCF7, HEPG2, HEP2, HCT116, Caco2, H460, FaDu, and Vero cells. For each concentration, three wells were used and incubation was continued for 48 h. DMSO was used as a control vehicle (1 % v/v). At the end of incubation, cells were fixed with 20 % trichloroacetic acid and stained with 0.4 % SRB dye. The optical density (O.D.) of each well was measured spectrophotometrically at 570 nm using an ELISA microplate reader (TECAN sunrise™, Germany). The mean survival fraction at each drug concentration was calculated as follows: […]
(§5) O.D. of the treated cells/O.D. of the control cells. The IC50 (concentration that produces 50% of cell growth inhibition) value of each drug was calculated using sigmoidal dose-response curve-fitting models (Graph Pad Prizm software, version 5) 1.
(In general: The SRB assay estimates cell density from bound dye.)

Another test concerns T47D. The experiment in a line: Cytotoxicity screening, SRB assay, T47D. Format: cell-based, human. The following applies: Homo sapiens, T47D, 48 h.
In the next test the test system is VERO. Description: Cytotoxicity screening, SRB assay, normal Vero cells. The class given is cell-based. Particulars: 48 h, normal cell line; for IC50: Chlorocebus sabaeus, Vero. The procedure:
as §1, §2, §3, §4, §5

The subject of a further test is H460. The experiment in a line: Cytotoxicity screening, SRB assay, H460. Format: cell-based, human. The following applies: for H460 IC50: 48 h; for IC50: Homo sapiens, NCI-H460, 48 h. As for the experimental part: as §1, §2, §3, §4, §5
Another test has as its system FADU. Description: Cytotoxicity screening, SRB assay, FADU. The class given is cell-based, human. The following applies: 48 h; for IC50: Homo sapiens, FaDu. As for the experimental part:
as §1, §2, §3, §4, §5

Another test relates to HEP2. The experiment in a line: Cytotoxicity screening, SRB assay, HEP2. The class given is cell-based, human. The following applies: for HEP2 IC50: 48 h; for IC50: Homo sapiens, HEp-2, 48 h. The procedure: as §1, §2, §3, §4, §5
The next test relates to HEPG2. The experiment in a line: Cytotoxicity screening, SRB assay, HEPG2. Format: cell-based, human. Particulars: for HEPG2 IC50: 48 h; for IC50: Homo sapiens, HepG2, 48 h. As for the experimental part:
as §1, §2, §3, §4, §5

The next test concerns HCT116. The experiment in a line: Cytotoxicity screening, SRB assay, HCT116. The class given is cell-based, human. The following applies: for HCT116 IC50: 48 h; for IC50: Homo sapiens, HCT-116, 48 h. The procedure:
as §1, §2, §3, §4, §5

Another test relates to HEPG2 cells. Description: Cell cycle DNA index analysis by flow cytometry. Format: cell-based, human. The following applies: HEPG2, 3.8 µg/mL, 48 h; for cells in G2/M phase: control 5.57%; for cells in G0/G1: control 92.7%. For orientation: In flow cytometry, cells or beads pass a laser one at a time.
For test [1], the system named is MCF7, H460, FADU, HEP2, HEPG2, HCT 116, Caco2, and Vero cells. Description: Oxidative stress assessment (MDA, NO, SOD, GSH). The class given is cell-based. Particulars: dose IC50, 48 h. As for the experimental part: Consequently, both compounds 8 and 14 were tested for their antioxidant activity in MCF7, H460, FADU, HEP2, HEPG2, HCT 116, Caco2, and Vero cells, and the dose used was the IC50 in all cell lines.
SI 2: Oxidative stress assessment
SI 2A: Determination of malondialdehyde content (MDA)
Lipid peroxidation products were quantified by measuring MDA level in cell culture lysate of control and treated cells using Lipid Peroxidation (MDA) Assay Kit (Sigma Aldrich Chemical Co., St.
Louis, USA) following the manufacturer’s instructions. The MDA level was calculated relative to the corresponding protein content. The absorbance was determined at 532 nm using a spectrophotometer (Spectronic, Milton Roy Co., USA).
SI 2B: Determination of superoxide dismutase (SOD)
[…] in cell culture lysate of control and treated cells by SOD determination kit (Sigma Aldrich Chemical Co., St. Louis, USA) following the manufacturer’s instructions. SOD level was calculated relative to the corresponding protein content. The absorbance of the supernatant was determined at 450 nm using a spectrophotometer (Spectronic, Milton Roy Co., USA) 2. The experiment was carried out three independent times.
SI 2C: Determination of reduced glutathione (GSH) content
Reduced glutathione was determined by adopting Ellman’s method. MCF7 and LCC2 cells were harvested, the protein was precipitated with trichloroacetic acid, and Ellman’s reagent [5,5-dithiobis-(2-nitrobenzoic acid)] (Sigma Aldrich Chemical Co, St. Louis, USA) was added to the supernatant. The absorbance was read at 405 nm and total SH was calculated as µM of GSH/mg protein 3.
SI 2D: Determination of nitric oxide (NO) content
Nitric oxide was determined in the culture media of the control and treated cells a s described before
4. Briefly, 0.5 ml cold absolute ethanol was added to 250µl culture media then left for 48 h at 4 °C to attain complete protein precipitation followed by centrifugation at 13,000 rpm for 1 h using a cooling centrifuge.
100 μl of nitrate standard solution were serially diluted in duplicate in a 96 -well microplate. Then, 100 μl of vanadium chloride were added to each well rapidly followed by 50 μl sulfanilamide and 50µl n -(1-naphthyl) ethylenediamine in 2 N hydrochloric acid. The absorbance at 540 nm was measured spectrophotometrically using an ELISA microplate reader (TECAN SunriseTM, Germany) following an incubation period of 30 min. The level of total nitrite/nitrate was expressed as µM and determined using […]

The next test concerns the target EGFR (Wild) (Homo sapiens, UniProt P00533). The experiment in a line: EGFR kinase (wild) inhibition assay, Kinase-Glo MAX.
The target of the next test is EGFR (T790M) (Homo sapiens, UniProt P00533, T790M). The experiment in a line: EGFR kinase (T790M) inhibition assay, Kinase-Glo MAX. On the technique in general: Kinase-Glo measures the ATP left after a reaction by luminescence.
Sequence of EGFR (T790M) (P00533 25-1210 T790M): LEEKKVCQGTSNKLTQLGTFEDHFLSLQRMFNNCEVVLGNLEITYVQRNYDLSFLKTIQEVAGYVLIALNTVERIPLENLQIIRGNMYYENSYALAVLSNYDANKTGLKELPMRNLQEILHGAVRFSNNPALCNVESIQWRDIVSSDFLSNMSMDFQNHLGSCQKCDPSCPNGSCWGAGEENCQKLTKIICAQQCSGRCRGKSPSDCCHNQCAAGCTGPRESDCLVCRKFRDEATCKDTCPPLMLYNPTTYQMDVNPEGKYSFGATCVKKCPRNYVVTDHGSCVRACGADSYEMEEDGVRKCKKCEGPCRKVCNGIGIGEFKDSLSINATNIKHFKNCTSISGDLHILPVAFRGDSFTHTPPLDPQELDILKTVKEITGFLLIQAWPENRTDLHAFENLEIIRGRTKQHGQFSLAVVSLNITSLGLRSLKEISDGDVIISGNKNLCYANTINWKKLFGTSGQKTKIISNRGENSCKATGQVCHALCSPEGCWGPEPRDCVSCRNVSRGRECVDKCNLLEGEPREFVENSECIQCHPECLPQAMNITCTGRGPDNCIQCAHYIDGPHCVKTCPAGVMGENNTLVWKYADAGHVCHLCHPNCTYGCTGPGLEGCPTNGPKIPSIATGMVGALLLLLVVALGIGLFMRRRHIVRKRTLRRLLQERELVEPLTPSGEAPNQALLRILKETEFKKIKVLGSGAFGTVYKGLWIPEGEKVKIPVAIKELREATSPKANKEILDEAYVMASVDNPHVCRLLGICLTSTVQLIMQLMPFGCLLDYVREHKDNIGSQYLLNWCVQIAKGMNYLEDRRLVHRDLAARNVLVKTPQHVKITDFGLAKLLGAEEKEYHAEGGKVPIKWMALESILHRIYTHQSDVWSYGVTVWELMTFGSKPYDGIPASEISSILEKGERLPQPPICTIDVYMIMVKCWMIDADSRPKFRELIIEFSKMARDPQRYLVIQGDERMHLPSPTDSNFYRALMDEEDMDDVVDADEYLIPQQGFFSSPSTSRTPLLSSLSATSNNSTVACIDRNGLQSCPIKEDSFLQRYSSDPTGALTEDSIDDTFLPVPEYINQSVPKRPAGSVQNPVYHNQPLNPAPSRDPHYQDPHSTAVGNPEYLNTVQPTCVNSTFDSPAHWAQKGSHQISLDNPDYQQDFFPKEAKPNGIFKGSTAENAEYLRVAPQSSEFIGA

Each structure is given as a SMILES string. Converted amounts (≈) assume the structure as drawn.

Sequence of EGFR (Wild) (P00533 25-1210): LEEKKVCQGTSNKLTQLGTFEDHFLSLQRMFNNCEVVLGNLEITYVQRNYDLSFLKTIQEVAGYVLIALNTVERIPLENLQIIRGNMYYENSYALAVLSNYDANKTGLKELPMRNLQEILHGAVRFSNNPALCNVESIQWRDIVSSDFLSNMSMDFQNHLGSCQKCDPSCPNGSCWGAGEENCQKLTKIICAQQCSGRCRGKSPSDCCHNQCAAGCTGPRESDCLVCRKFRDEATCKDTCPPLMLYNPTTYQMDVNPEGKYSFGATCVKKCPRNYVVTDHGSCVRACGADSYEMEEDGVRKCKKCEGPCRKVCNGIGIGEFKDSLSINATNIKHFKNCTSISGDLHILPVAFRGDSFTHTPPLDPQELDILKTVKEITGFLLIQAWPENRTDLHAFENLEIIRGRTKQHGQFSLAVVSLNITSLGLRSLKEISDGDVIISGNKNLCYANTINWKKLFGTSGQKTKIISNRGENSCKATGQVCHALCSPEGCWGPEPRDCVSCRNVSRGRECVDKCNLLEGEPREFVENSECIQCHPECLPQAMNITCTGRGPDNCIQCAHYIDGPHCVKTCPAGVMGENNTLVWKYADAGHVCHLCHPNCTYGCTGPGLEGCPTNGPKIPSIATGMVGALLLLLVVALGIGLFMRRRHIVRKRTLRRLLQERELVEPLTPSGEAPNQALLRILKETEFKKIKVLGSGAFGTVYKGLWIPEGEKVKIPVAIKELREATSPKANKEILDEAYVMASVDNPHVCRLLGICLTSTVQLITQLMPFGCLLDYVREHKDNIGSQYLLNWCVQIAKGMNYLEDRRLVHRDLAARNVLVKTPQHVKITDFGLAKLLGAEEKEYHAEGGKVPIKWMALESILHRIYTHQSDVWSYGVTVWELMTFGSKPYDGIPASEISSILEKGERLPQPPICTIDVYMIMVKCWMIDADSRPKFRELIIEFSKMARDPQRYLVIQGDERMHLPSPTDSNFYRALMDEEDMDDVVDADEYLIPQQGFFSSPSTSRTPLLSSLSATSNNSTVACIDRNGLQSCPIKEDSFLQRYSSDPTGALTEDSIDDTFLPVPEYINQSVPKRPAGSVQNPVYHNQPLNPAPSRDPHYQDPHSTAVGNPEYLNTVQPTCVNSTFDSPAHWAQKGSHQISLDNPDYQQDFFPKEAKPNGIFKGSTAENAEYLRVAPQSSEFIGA
Description for EGFR (T790M): (§6) The reagent, Kinase-Glo MAX, was used[50], and luminescence was detected by applying the microplate reader.
(§7) The assay protocol was carried out by adding 25 μL of the master mixture: (6 μL Kinase assay buffer + 1 μL ATP (500 μM) + 1 μL PTK substrate + 17 μL water) to each well. Thereafter, 5 μL of the inhibitor solution was added to each well labeled as “test inhibitor”. Meanwhile, for the “positive control" and “blank”, 5 μL of the same solution without inhibitor (inhibitor buffer) was added. To the wells designated as "blank", add 20 μL of Kinase assay buffer. The amount of EGFR required for the assay was calculated and the enzyme was diluted to 1 ng/μL with Kinase assay buffer. The reaction was initiated by adding 20 μL of diluted EGFR enzyme to the wells designated as “positive control” and "test inhibitor control". The wells were incubated at 30°C for 40 minutes, then 50 μL of Kinase-Glo Max reagent was added to each well. The plate was incubated at room temperature for 15 minutes and luminescence was measured using the microplate reader.
Description for EGFR (Wild): as §6, §7

As usually defined, the IC50 is the point on the concentration scale where inhibition reaches its midpoint. For the compound `Oc1n[nH]c2nc(-c3ccco3)cc(-c3cccs3)c12` [Compound 8], the “MCF7 IC50” value in the test with MCF7 is 4.10 µg/mL. The IC50 turned out to be 3.8 µg/mL (≈ 13.4 µM) in the test on MCF7; 7.5 µg/mL (≈ 26.5 µM) in the test on T47D; 4.3 µg/mL (≈ 15.2 µM) in the test on VERO; 8.5 µg/mL (≈ 30 µM) in the test on H460; 3.8 µg/mL (≈ 13.4 µM) with FADU; 4.4 µg/mL (≈ 15.5 µM) with HEP2. For the same compound, the IC50 with HEPG2 was determined as 4 µg/mL (≈ 14.1 µM); with HCT116 it was 4 µg/mL (≈ 14.1 µM); on EGFR (Wild) it was 131 ± 8 nM; at EGFR (T790M) it was 27 ± 2 nM. The “VERO IC50” value in the test with VERO is 3.90 µg/mL. In addition, in the test on H460, the “H460 IC50” value was determined as 11.70 µg/mL. In addition, the “FADU IC50” value in the test with FADU was 5.60 µg/mL. Also, the “HEP2 IC50” value in the test on HEP2 came to 7.90 µg/mL. The “HEPG2 IC50” value in the test on HEPG2 was found to be 3.80 µg/mL. Further, in the test with HCT116, the “HCT116 IC50” value is 7.20 µg/mL. Moreover, in the test with HEPG2 cells, the “cells in G2/M phase” value was determined as 34.4%. Moreover, the “cells in G0/G1” value in the test on HEPG2 cells stood at 61.4%. Also, the “effect on oxidative state (MDA, NO, SOD, GSH)” value was “antioxidant effect” in test [1] (Caco2) and “pro-oxidant effect” in test [1] (all tested cell lines except Caco2).
Turning to `N#Cc1c(-c2cccs2)cc(-c2ccco2)[nH]c1=O` [Compound 14], the “MCF7 IC50” value in the test with MCF7 worked out at 3.70 µg/mL. The IC50 was found to be 7 µg/mL (≈ 26.1 µM) in the test on MCF7; 4.7 µg/mL (≈ 17.5 µM) in the test with T47D; 4 µg/mL (≈ 14.9 µM) with VERO; 12.5 µg/mL (≈ 46.6 µM) in the test with H460; 5.7 µg/mL (≈ 21.2 µM) in the test with FADU; 8 µg/mL (≈ 29.8 µM) with HEP2. For the same compound, the IC50 with HEPG2 was 3.6 µg/mL (≈ 13.4 µM); in the test with HCT116, 7.4 µg/mL (≈ 27.6 µM); at EGFR (Wild), 203 ± 12 nM; on EGFR (T790M) it was 156 ± 9 nM. Besides, in the test on VERO, the “VERO IC50” value stood at 4.60 µg/mL. Besides, the “H460 IC50” value in the test with H460 is 8.00 µg/mL. For the same compound, the “FADU IC50” value in the test on FADU came out at 3.90 µg/mL. Also, the “HEP2 IC50” value in the test with HEP2 is 4.70 µg/mL. Further, in the test on HEPG2, the “HEPG2 IC50” value is listed as 3.80 µg/mL. Besides, the “HCT116 IC50” value with HCT116 came to 3.90 µg/mL. Besides, the “cells in G2/M phase” value in the test on HEPG2 cells is on record as 25.9%. In addition, in the test with HEPG2 cells, the “cells in G0/G1” value came to 69.8%. Further, the “effect on oxidative state (MDA, NO, SOD, GSH)” value in test [1] (FADU and Caco2) is “anti-oxidant effect”; in [1] (MCF7, H460, HEP2, HEPG2, HCT, and Vero cells), “pro-oxidant effect”.
